The source of these data is PMC11879040, “Advancing systemic toxicity risk assessment: Evaluation of a NAM-based toolbox approach” (Toxicological Sciences, 2024).

The target in data set [1] is T1, Monoamine oxidase type A, MAOA (r) (Rattus norvegicus, UniProt P21396).
T1 sequence (P21396 1-526): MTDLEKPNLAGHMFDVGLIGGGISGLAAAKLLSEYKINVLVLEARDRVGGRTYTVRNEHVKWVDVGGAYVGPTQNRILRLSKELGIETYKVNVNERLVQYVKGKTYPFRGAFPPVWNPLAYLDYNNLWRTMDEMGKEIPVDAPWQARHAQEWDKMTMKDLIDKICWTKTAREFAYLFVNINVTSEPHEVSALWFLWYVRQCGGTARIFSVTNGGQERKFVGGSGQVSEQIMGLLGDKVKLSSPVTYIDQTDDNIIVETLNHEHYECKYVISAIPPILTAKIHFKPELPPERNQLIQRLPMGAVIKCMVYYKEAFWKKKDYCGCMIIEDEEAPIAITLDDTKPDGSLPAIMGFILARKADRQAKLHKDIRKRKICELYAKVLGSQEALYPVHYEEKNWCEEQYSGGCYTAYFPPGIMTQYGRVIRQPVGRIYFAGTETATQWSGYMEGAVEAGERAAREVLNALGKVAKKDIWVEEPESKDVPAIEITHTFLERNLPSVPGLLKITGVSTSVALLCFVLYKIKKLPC
Description: IPP MAOA binding (antagonist radioligand). To be noted: IPP screening at 10 uM; control clorgyline.

In data set [2] the target is cAMP-specific 3',5'-cyclic phosphodiesterase 4D, PDE4D (h) (Homo sapiens, UniProt Q08499). Description: IPP PDE4D enzymatic activity. It is filed as biochemical. To be noted: control Ro 20-1724.
cAMP-specific 3',5'-cyclic phosphodiesterase 4D, PDE4D (h), sequence (Q08499 whole entry): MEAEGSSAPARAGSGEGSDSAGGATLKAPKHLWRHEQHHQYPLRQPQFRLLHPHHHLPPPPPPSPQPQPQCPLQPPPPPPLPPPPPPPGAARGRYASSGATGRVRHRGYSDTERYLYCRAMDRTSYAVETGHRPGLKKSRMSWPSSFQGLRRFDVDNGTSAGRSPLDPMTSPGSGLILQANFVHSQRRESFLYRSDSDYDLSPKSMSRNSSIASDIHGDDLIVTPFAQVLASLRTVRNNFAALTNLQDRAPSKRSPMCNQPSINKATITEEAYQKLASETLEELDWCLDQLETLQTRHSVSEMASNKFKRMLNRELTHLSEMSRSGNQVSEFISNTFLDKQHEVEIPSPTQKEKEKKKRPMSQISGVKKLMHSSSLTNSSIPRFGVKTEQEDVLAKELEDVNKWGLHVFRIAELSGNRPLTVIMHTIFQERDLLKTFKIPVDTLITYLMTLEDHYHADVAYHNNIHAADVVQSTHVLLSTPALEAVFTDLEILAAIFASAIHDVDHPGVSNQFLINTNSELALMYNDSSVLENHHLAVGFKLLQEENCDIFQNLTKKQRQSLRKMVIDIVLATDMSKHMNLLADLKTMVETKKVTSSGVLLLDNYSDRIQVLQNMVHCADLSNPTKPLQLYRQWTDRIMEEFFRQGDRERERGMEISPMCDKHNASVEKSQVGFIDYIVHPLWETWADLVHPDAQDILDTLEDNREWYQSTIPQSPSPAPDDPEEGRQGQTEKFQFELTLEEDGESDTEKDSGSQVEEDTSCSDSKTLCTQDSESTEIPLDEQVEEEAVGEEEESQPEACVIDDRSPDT
For data set [3], the target named is T2, Beta-2 adrenergic receptor, ADRB2 (h) (Homo sapiens, UniProt P07550).
T2 construct: purchased Eurofins Cerep (SafetyScreen44-based IPP panel)
Description: IPP ADRB2 binding (antagonist radioligand). To be noted: control ICI 118551.

In data set [4] the target is T3, Prostaglandin G/H synthase 2, PTGS2 (h) (Homo sapiens, UniProt P35354).
T3 sequence (P35354 18-604): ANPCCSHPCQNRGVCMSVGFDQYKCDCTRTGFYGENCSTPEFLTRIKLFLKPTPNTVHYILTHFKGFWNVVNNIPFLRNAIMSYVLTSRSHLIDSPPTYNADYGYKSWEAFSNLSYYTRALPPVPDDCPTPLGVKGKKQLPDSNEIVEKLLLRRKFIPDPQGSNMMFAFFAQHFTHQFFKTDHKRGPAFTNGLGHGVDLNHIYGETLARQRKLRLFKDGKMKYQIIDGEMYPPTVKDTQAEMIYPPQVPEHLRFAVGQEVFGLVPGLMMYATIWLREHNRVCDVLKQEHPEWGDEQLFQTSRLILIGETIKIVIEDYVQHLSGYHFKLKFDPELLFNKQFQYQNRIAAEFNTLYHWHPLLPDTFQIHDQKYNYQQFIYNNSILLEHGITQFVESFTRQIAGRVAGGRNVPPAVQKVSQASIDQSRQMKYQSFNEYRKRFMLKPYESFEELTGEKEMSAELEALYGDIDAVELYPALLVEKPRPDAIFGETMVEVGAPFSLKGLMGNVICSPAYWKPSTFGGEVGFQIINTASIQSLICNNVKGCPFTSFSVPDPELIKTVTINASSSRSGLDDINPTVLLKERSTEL
Description: IPP PTGS2 enzymatic activity. It is filed as biochemical. To be noted: control NS398.

Data set [5] deals with 5-hydroxytryptamine receptor 2A, HTR2A (h) (Homo sapiens, UniProt P28223). It is filed as binding.
5-hydroxytryptamine receptor 2A, HTR2A (h), sequence (P28223 whole entry): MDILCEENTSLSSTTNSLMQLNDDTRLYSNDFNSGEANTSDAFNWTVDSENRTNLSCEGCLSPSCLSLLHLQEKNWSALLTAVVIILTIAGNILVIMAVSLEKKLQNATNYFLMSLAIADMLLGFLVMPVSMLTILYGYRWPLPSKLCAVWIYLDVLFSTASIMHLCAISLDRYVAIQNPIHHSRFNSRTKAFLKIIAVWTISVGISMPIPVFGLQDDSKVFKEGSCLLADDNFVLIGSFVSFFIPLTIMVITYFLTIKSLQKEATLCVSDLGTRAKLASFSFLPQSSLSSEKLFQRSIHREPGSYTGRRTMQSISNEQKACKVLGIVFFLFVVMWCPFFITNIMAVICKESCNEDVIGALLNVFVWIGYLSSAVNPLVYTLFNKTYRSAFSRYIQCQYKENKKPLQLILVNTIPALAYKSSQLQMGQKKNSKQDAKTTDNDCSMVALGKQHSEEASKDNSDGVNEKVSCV
For data set [6], the target named is Tyrosine-protein kinase Lck, LCK (h) (Homo sapiens, UniProt P06239). Description: IPP LCK enzymatic activity. It is filed as biochemical. To be noted: IPP screening at 10 uM; control staurosporine.
Tyrosine-protein kinase Lck, LCK (h), sequence (P06239 whole entry): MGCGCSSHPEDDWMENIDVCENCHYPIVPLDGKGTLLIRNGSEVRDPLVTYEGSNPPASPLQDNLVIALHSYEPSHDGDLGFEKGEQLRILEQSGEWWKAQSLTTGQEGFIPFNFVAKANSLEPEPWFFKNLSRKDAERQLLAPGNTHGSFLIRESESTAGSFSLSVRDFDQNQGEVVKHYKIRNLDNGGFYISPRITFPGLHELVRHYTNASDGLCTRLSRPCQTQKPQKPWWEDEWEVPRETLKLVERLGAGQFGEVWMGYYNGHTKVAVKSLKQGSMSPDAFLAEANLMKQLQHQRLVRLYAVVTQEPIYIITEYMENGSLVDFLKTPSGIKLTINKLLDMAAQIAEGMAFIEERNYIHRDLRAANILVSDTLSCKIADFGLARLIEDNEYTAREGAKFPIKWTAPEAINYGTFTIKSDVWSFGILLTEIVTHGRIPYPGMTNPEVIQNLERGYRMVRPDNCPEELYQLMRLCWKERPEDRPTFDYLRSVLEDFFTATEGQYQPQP
In data set [7] the target is T4, Angiotensin II receptor Type-1, AGTR1 (h) (Homo sapiens, UniProt P30556).
T4 construct: purchased Eurofins Cerep (SafetyScreen44-based IPP panel)
T4 sequence (P30556 1-359): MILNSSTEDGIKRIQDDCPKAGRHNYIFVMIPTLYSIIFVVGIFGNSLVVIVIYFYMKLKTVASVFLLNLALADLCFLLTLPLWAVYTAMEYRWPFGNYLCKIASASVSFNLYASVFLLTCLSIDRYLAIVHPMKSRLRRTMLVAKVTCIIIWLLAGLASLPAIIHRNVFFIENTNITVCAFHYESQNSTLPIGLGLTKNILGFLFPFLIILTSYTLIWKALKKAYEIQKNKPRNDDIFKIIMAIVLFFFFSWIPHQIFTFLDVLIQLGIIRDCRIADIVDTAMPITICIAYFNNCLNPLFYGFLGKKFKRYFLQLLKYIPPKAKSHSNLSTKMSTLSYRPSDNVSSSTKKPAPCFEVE
Description: IPP AGTR1 binding. To be noted: ligand/control Saralasin.

The target in data set [8] is Angiotensin-converting enzyme 2, ACE2 (h) (Homo sapiens, UniProt Q9BYF1). Description: IPP ACE2 enzymatic activity. It is filed as biochemical. To be noted: 10 uM; control captopril.
Angiotensin-converting enzyme 2, ACE2 (h), sequence (Q9BYF1 18-805): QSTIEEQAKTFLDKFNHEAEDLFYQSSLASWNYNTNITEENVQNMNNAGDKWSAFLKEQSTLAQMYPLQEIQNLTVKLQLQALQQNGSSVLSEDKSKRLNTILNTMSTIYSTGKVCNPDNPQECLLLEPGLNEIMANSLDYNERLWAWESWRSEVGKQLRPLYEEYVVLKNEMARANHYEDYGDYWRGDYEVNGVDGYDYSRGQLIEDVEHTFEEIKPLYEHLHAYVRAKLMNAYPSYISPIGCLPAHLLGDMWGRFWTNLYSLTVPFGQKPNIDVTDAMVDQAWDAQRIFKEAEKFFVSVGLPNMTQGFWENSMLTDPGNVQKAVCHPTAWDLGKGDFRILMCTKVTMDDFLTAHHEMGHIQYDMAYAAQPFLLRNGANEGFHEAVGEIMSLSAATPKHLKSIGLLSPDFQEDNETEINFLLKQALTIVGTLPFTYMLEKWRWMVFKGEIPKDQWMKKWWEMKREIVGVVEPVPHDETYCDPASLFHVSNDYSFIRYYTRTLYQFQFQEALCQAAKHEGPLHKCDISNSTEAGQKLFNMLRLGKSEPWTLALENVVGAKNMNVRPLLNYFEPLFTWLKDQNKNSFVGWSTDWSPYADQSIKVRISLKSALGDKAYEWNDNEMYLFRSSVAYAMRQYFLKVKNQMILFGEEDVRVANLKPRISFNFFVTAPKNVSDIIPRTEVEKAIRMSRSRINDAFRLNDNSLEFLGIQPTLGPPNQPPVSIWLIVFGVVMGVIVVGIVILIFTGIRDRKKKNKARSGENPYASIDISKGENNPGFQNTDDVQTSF
Data set [9] has as its target Carbonic anhydrase II, CA2 (h) (Homo sapiens, UniProt P00918). Description: IPP CA2 enzymatic activity. The format is biochemical. To be noted: 10 uM; control acetazolamide.
Data set [10] has as its target T5, Endothelin-1 receptor, EDNRA (h) (Homo sapiens, UniProt P25101).
T5 sequence (P25101 21-427): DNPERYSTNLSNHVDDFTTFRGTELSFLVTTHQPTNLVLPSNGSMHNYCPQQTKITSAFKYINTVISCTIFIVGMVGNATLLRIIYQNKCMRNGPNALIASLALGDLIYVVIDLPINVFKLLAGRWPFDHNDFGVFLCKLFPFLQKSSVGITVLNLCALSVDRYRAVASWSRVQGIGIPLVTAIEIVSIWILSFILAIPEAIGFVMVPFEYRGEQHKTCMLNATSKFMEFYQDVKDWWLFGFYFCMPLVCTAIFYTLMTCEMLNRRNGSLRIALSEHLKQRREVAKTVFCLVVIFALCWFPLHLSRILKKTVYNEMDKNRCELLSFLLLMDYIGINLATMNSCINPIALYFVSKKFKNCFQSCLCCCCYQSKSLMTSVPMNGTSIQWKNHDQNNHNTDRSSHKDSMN
To be noted: control endothelin-1.

The test system of data set [11] is Glutamate receptor ionotropic NMDA 1 non-selective, GRIN1 (r).
For data set [12], the target named is Delta-type opioid receptor, OPRD1 (h) (Homo sapiens, UniProt P41143). To be noted: ligand/control DPDPE.
Delta-type opioid receptor, OPRD1 (h), sequence (P41143 whole entry): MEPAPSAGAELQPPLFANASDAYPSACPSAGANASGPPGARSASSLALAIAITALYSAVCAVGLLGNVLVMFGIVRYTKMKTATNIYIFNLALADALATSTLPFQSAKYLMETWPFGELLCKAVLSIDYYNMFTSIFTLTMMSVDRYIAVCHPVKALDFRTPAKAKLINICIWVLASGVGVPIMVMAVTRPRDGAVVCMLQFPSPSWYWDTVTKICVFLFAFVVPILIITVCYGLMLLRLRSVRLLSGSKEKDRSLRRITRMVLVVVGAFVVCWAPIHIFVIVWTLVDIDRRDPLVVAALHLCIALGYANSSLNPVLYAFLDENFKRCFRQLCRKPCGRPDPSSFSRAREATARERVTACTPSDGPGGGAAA
Data set [13] addresses Potassium voltage-gated channel subfamily H member 2 hERG, KCNH2 (h) (Homo sapiens, UniProt Q12809).
Setting [14] is: IPP screening at 10 uM, control (±)DOI.
The mark [15] stands for this setting: IPP screening at 10 uM, control CGS 19755.

Where two headings read alike, the source gives them in different places.

Potassium voltage-gated channel subfamily H member 2 hERG, KCNH2 (h), sequence (Q12809 whole entry): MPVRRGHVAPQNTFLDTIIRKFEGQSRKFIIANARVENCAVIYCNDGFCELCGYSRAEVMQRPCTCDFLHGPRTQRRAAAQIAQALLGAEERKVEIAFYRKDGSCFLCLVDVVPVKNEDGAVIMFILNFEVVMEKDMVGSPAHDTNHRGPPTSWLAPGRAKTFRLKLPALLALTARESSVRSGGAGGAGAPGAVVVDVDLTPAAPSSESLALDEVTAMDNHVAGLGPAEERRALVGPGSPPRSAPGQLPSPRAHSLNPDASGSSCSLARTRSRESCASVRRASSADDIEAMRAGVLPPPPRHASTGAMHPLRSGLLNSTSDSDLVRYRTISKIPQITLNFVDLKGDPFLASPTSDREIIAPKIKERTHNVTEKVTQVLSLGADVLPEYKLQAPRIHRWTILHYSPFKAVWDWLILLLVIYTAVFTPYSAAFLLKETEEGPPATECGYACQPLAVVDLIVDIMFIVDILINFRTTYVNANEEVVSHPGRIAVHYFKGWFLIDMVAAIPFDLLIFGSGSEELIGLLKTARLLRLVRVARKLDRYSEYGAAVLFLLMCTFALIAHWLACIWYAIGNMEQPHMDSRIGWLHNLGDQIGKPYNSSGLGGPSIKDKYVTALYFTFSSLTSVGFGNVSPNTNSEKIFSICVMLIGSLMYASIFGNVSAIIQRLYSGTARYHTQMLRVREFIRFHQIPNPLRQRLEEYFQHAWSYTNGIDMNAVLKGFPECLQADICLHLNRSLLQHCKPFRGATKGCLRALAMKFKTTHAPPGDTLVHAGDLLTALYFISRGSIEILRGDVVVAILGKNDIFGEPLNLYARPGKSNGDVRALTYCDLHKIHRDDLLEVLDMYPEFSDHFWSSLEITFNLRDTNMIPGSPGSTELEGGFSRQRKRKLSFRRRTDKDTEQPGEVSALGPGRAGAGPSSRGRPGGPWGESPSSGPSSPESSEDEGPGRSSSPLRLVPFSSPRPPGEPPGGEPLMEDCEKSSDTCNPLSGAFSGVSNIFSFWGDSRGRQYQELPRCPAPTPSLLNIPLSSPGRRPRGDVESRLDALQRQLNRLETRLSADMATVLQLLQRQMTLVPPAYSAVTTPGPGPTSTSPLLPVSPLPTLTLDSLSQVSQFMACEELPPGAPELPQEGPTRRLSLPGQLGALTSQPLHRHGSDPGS

As to `CCOP(=S)(OCC)Oc1nc(Cl)c(Cl)cc1Cl` [Chlorpyrifos, O,O-Diethyl O-(3,5,6-trichloropyridin-2-yl) phosphorothioate], the Specific binding in data set [1] was 3.1%; in data set [3] (IPP screening at 10 uM), -2.4%; in [5] (setting [14]) it was 52.0%; in data set [10] (IPP screening at 10 uM), 0.1%; in [11] (setting [15]) it was 0.2%. For the same compound, the Enzymatic activity in data set [2] (IPP screening at 10 uM) was 51.8%; in data set [4] (IPP screening at 10 uM) it was -4.1%; in data set [6] it was -7.4%. The “IPP screening %, Specific binding” value is recorded as 0.5% in data set [7] (10 uM) and 2.5% in [12] (10 uM). For the same compound, the “IPP screening %, Enzymatic activity” value in data set [8] is recorded as -18.8%; in [9], 5.1%.
Regarding `CC(C)(C)c1ccc(CCOc2ncnc3ccccc23)cc1` [Fenazaquin, 4-[2-(4-tert-Butylphenyl)ethoxy]quinazoline], the Specific binding in [1] was 8.2%; in [3] (IPP screening at 10 uM) it was -1.2%; in data set [5] (setting [14]) it was 20.7%; in data set [10] (IPP screening at 10 uM) it was 2.7%; in [11] (setting [15]) it was 0.6%. The Enzymatic activity in data set [2] (IPP screening at 10 uM) turned out to be 14.7%; in data set [4] (IPP screening at 10 uM), 0.8%; in data set [6] it was 3.3%. Moreover, the “IPP screening %, Specific binding” value in data set [7] (10 uM) was 8.6%; in data set [12] (10 uM) it was 46.9%; in data set [13] (10 uM, [3H] Dofetilide, control Terfenadine) it was 34.9%. In addition, the “IPP screening %, Enzymatic activity” value was -29.1% in [8] and -0.2% in data set [9].
Take `CC1(C)O[C@@H]2[C@@H](CO[C@@]3(COS(N)(=O)=O)OC(C)(C)O[C@@H]23)O1` [Topiramate, [(3aS,5aR,8aR,8bS)-2,2,7,7-Tetramethyltetrahydro-2H,3aH,7H-bis[1,3]dioxolo[4,5-b:4',5'-d]pyran-3a-yl]methyl sulfamate (non-preferred name)]: the Enzymatic activity in data set [2] (IPP screening at 100 uM) came out at 27.9%; in [4] (IPP screening at 100 uM), 4.1%. For the same compound, the Specific binding in data set [3] (IPP screening at 100 uM) is 3.5%; in data set [5] (IPP screening at 100 uM; control ±)DOI) it was 0.9%; in data set [10] (IPP screening at 100 uM), 5.1%; in [11] (IPP screening at 100 uM, control CGS 19755), -5.1%. Besides, the “IPP screening %, Specific binding” value is recorded as -7.3% in data set [7] (100 uM), 2.3% in data set [12] (100 uM) and -13.1% in data set [13] (human).
Turning to “(4S,4aR,5S,5aR,6S,12aS)-4-(Dimethylamino)-3,5,6,10,12,12a-hexahydroxy-6-methyl-1,11-dioxo-1,4,4a,5,5a,6,11,12a-octahydrotetracene-2-carboxamide--hydrogen chloride (1/1) [Oxytetracycline hydrochloride]”, the Specific binding in [1] is recorded as 0.8%; in data set [3] (IPP screening at 10 uM) it was 0.6%; in data set [10] (IPP screening at 10 uM) it was -1.2%; in [11] (setting [15]), 2.8%. Moreover, the Enzymatic activity in data set [2] (IPP screening at 10 uM) is listed as 9.6%; in data set [4] (IPP screening at 10 uM), 14.5%; in data set [6], -1.2%. Also, the “IPP screening %, Specific binding” value was -8.1% in data set [7] (10 uM), -5.6% in data set [12] (10 uM) and -10.2% in data set [13]. In addition, the “IPP screening %, Enzymatic activity” value is on record as -18.6% in [8] and 0.7% in data set [9].
For “mixture of 2- and 3-tert-butyl-4-methoxyphenol [Butylated Hydroxyanisole]”, the Specific binding in [1] was 6.7%; in [3] (IPP screening at 10 uM), 0.4%; in data set [5] (setting [14]), 74.3%; in [10] (IPP screening at 10 uM) it was -10.4%; in [11] it was 2.2%. In addition, the Enzymatic activity in [2] (IPP screening at 10 uM) was determined as 12.2%; in data set [4] (IPP screening at 10 uM), 62.4%; in data set [6], 14.6%. Further, the “IPP screening %, Specific binding” value in [7] (10 uM) is reported as -1.0%; in data set [12] (10 uM) it was -2.3%. The “IPP screening %, Enzymatic activity” value in data set [8] is given as -6.0%; in data set [9], -0.4%.
